Test results reported in US20090136448A1, “Antiviral 2-Carboxy-Thiophene Compounds” (priority 2005, published 2009).

What was measured:
[1] = test system: HCV replication, genotype 1b (Huh-7 HCV replicon cell, sub-line 5-15); assay: Replicon ELISA cell based assay, genotype 1b; details: Hepatitis C virus, Huh-7 HCV replicon cells, genotype 1b (sub-line 5-15), 72 hours, mean, assayed at least twice
Experimental: (§1) Replicon ELISA Cell Based Assay
(§2) 100 μL of medium containing 10% FCS were added to each well of clear, flat-bottomed 96 well microplates, excepting wells in the top row. Test compound was diluted in assay medium to twice the final required starting concentration from a 40 mM stock solution in DMSO. 200 μL of the starting dilution were introduced into two wells each in the top row and doubling dilutions made down the plate by the sequential transfer of 100 μL aliquots with thorough mixing in the wells; the final 100 μL were discarded. The two bottom rows were not used for compound dilutions. Huh-7 HCV replicon cell monolayers nearing confluency were stripped from growth flasks with versene-trypsin solution and the cells were resuspended in assay medium at either 2×10^5 cells/mL (sub-line 5-15; genotype 1b; Lohmann, V., Korner, F., Koch, J-O., Herian, U., Thielmann, L. and Bartenschlager, R., Science, 1999, 285, 110-113) or at 3×10^5 cells/mL (genotype 1a; Gu, B., Gates, A. T., Isken, O., Behrens, S. E. and Sarisky, R. T., J. Virol., 2003, 77, 5352-5359). 100 μL of cell suspension were added to all wells and the plates incubated at 37° C. for 72 hours in a 5% CO2 atmosphere.
(§3) Following incubation, the assay medium was aspirated from the plates. The cell sheets were washed by gentle immersion in phosphate buffered saline (PBS), which was then aspirated off, and fixed with acetone:methanol (1:1) for 5 minutes. Following a further wash with PBS, 100 μL of ELISA diluent (PBS+0.05% v/v Tween 20+2% w/v skimmed milk powder) were added to all wells and the plates incubated at 37° C. for 30 minutes on an orbital platform. The diluent was removed and each well then received 50 μL of a 1/200 dilution of anti-HCV specific, murine, monoclonal antibody (either Virostat #1872 or #1877), except for wells in one of the compound-free control rows which received diluent alone to act as negative controls. The plates were incubated at 37° C. for 2 hours and washed 3 times with PBS/0.05% Tween 20, then 50 μL of horseradish peroxidase conjugated, anti-mouse, rabbit polyclonal serum (Dako #P0260), diluted 1/1000, were added to all wells. The plates were incubated for a further hour, the antibody removed and the cell sheets washed 5 times with PBS/Tween and blotted dry. The assay was developed by the addition of 50 μL of ortho-phenylenediamine/peroxidase substrate in urea/citrate buffer (SigmaFast, Sigma #P-9187) to each well, and colour allowed to develop for up to 15 minutes. The reaction was stopped by the addition of 25 μL per well of 2 M sulphuric acid and the plates were read at 490 nm on a Fluostar Optima spectrophotometer.
(§4) The substrate solution was removed and the plates were washed in tap water, blotted dry and the cells stained with 5% carbol fuchsin in water for 30 minutes. The stain was discarded and the cell sheets washed, dried and examined microscopically to assess cytotoxicity.
(§5) The absorbance values from all compound-free wells that had received both primary and secondary antibodies were averaged to obtain a positive control value. The mean absorbance value from the compound-free wells that had not received the primary antibody was used to provide the negative (background) control value. The readings from the duplicate wells at each compound concentration were averaged and, after the subtraction of the mean background from all values, were expressed as a percentage of the positive control signal. The quantifiable and specific reduction of expressed protein detected by the ELISA in the presence of a drug can be used as a measure of replicon inhibition. GraFit software (Erithacus Software Ltd.) was used to plot the curve of percentage inhibition against compound concentration and derive the 50% inhibitory concentration (IC50) for the compound.

[2] = test system: HCV replication, genotype 1a (Huh-7 HCV replicon cell); assay: Replicon ELISA cell based assay, genotype 1a; details: Hepatitis C virus, Huh-7 HCV replicon cells, 72 hours, mean, assayed at least twice
Experimental: as §1, §2, §3, §4, §5

`CC(C)N(c1cc(-c2ccc(-c3cc4ncccn4n3)cc2)sc1C(=O)O)C(=O)[C@H]1CC[C@H](C(F)(F)F)CC1` [Example 15, 3-((1-Methylethyl){[trans-4-(trifluoromethyl)cyclohexyl]carbonyl}-amino)-5-(4-pyrazolo[1,5-a]pyrimidin-2-ylphenyl)-2-thiophenecarboxylic acid] showed an IC50 [1] of 50 to 100 nM and an IC50 [2] of 100 to 500 nM.
Work on `CC(C)N(c1cc(-c2ccc(-c3nc4c(N)cccc4o3)cc2)sc1C(=O)O)C(=O)[C@H]1CC[C@H](C)CC1` [Example 16, 5-[4-(4-Amino-1,3-benzoxazol-2-yl)phenyl]-3-[[(trans-4-methylcyclohexyl)carbonyl](1-methylethyl)amino]-2-thiophenecarboxylic acid] yielded an IC50 [1] of 10 to 50 nM and an IC50 [2] of 10 to 50 nM.
For `CC(C)N(c1cc(-c2ccc(-c3ccn4nccc4n3)cc2)sc1C(=O)O)C(=O)[C@H]1CC[C@H](C)CC1` [Example 17, 3-[[(trans-4-Methylcyclohexyl)carbonyl](1-methylethyl)amino]-5-(4-pyrazolo[1,5-a]pyrimidin-5-ylphenyl)-2-thiophenecarboxylic acid], the IC50 [1] was 100 to 500 nM and the IC50 [2] was 100 to 500 nM.
`CC(C)N(c1cc(-c2ccc(-c3cc4ncccc4o3)nc2)sc1C(=O)O)C(=O)[C@H]1CC[C@H](C)CC1` [Example 18, 5-(6-Furo[3,2-b]pyridin-2-yl-3-pyridinyl)-3-[[(trans-4-methylcyclohexyl)carbonyl](1-methylethyl)amino]-2-thiophenecarboxylic acid] showed an IC50 [1] of 10 to 50 nM and an IC50 [2] of 50 to 100 nM.
`CC(C)N(c1cc(-c2ccc(-c3cc4cccc(O)c4o3)cc2)sc1C(=O)O)C(=O)[C@H]1CC[C@H](C)CC1` [Example 19, 5-[4-(7-Hydroxy-1-benzofuran-2-yl)phenyl]-3-[[(trans-4-methylcyclohexyl)carbonyl](1-methylethyl)amino]-2-thiophenecarboxylic acid] gave an IC50 [1] of less than 5 nM and an IC50 [2] of less than 5 nM.
In the case of `CC(C)N(c1cc(-c2ccc(-c3nc4cccc(O)c4o3)cc2)sc1C(=O)O)C(=O)[C@H]1CC[C@H](C)CC1` [Example 20, 5-[4-(7-Hydroxy-1,3-benzoxazol-2-yl)phenyl]-3-[[(trans-4-methylcyclohexyl)carbonyl](1-methylethyl)amino]-2-thiophenecarboxylic acid], the IC50 [1] is reported as 10 to 50 nM and the IC50 [2] is reported as 100 to 500 nM.
`CC(C)N(c1cc(-c2ccc(-c3cn4ccsc4n3)cc2)sc1C(=O)O)C(=O)[C@H]1CC[C@H](C(F)(F)F)CC1` [Example 21, 5-(4-Imidazo[2,1-b][1,3]thiazol-6-ylphenyl)-3-((1-methylethyl){[trans-4-(trifluoromethyl)cyclohexyl]carbonyl}amino)-2-thiophenecarboxylic acid] showed an IC50 [1] of 100 to 500 nM and an IC50 [2] of 50 to 100 nM.
`CC(C)N(c1cc(-c2ccc(-c3cc4ncccc4o3)cc2)sc1C(=O)O)C(=O)[C@H]1CC[C@H](C(F)(F)F)CC1` [Example 22, 5-(4-Furo[3,2-b]pyridin-2-ylphenyl)-3-((1-methylethyl){[trans-4-(trifluoromethyl)cyclohexyl]carbonyl}amino)-2-thiophenecarboxylic acid] showed an IC50 [1] of 50 to 100 nM and an IC50 [2] of 50 to 100 nM.
Compound `CC(C)N(c1cc(-c2ccc(-c3nc4ccc(N)cc4o3)cc2)sc1C(=O)O)C(=O)[C@H]1CC[C@H](C)CC1` [Example 23, 5-[4-(6-Amino-1,3-benzoxazol-2-yl)phenyl]-3-[[(trans-4-methylcyclohexyl)carbonyl](1-methylethyl)amino]-2-thiophenecarboxylic acid] has an IC50 [1] of 10 to 50 nM and an IC50 [2] of 50 to 100 nM.
In the case of `CC(C)N(c1cc(-c2ccc(-c3cc4cccnn4n3)cc2)sc1C(=O)O)C(=O)[C@H]1CC[C@H](C)CC1` [Example 24, 3-[[(trans-4-Methylcyclohexyl)carbonyl](1-methylethyl)amino]-5-(4-pyrazolo[1,5-b]pyridazin-2-ylphenyl)-2-thiophenecarboxylic acid], the IC50 [1] is reported as 10 to 50 nM and the IC50 [2] is reported as 100 to 500 nM.
For `CC(C)N(c1cc(-c2ccc(-c3nc4ncccc4o3)cc2)sc1C(=O)O)C(=O)[C@H]1CC[C@H](C(F)(F)F)CC1` [Example 25, 3-((1-Methylethyl){[trans-4-(trifluoromethyl)cyclohexyl]carbonyl}amino)-5-(4-[1,3]oxazolo[4,5-b]pyridin-2-ylphenyl)-2-thiophenecarboxylic acid], the IC50 [1] was 100 to 500 nM and the IC50 [2] was 100 to 500 nM.
`Cc1ccn2nc(-c3ccc(-c4cc(N(C(=O)[C@H]5CC[C@H](C(F)(F)F)CC5)C(C)C)c(C(=O)O)s4)cc3)cc2n1` [Example 26, 3-((1-Methylethyl){[trans-4-(trifluoromethyl)cyclohexyl]carbonyl}amino)-5-[4-(5-methylpyrazolo[1,5-a]pyrimidin-2-yl)phenyl]-2-thiophenecarboxylic acid] showed an IC50 [1] of 500 to 1000 nM and an IC50 [2] of 100 to 500 nM.
`CC(C)N(c1cc(-c2ccc(-c3cn4cc(N)ccc4n3)cc2)sc1C(=O)O)C(=O)[C@H]1CC[C@H](C)CC1` [Example 27, 5-[4-(6-Aminoimidazo[1,2-a]pyridin-2-yl)phenyl]-3-[[(trans-4-methylcyclohexyl)carbonyl](1-methylethyl)amino]-2-thiophenecarboxylic acid] was tested, and the IC50 [1] was 100 to 500 nM and the IC50 [2] was 100 to 500 nM.
`CC(C)N(c1cc(-c2ccc(-c3ccc4nc[nH]c4c3)cc2)sc1C(=O)O)C(=O)[C@H]1CC[C@H](C)CC1` [Example 28, 5-[4-(1H-Benzimidazol-5-yl)phenyl]-3-[[(trans-4-methylcyclohexyl)carbonyl](1-methylethyl)amino]-2-thiophenecarboxylic acid] was tested, and the IC50 [1] was 100 to 500 nM and the IC50 [2] was 100 to 500 nM.
`CC(C)N(c1cc(-c2ccc(-c3cc4cc(N)ccc4o3)cc2)sc1C(=O)O)C(=O)[C@H]1CC[C@H](C)CC1` [Example 29, 5-[4-(5-Amino-1-benzofuran-2-yl)phenyl]-3-[[(trans-4-methylcyclohexyl)carbonyl](1-methylethyl)amino]-2-thiophenecarboxylic acid] gave an IC50 [1] of 100 to 500 nM and an IC50 [2] of 100 to 500 nM.
Compound `CC(C)N(c1cc(-c2ccc(-c3cc4ccc(N)cc4o3)cc2)sc1C(=O)O)C(=O)[C@H]1CC[C@H](C)CC1` [Example 30, 5-[4-(6-Amino-1-benzofuran-2-yl)phenyl]-3-[[(trans-4-methylcyclohexyl)carbonyl](1-methylethyl)amino]-2-thiophenecarboxylic acid] has an IC50 [1] of 500 to 1000 nM and an IC50 [2] of 100 to 500 nM.
For `CC(C)N(c1cc(-c2coc(-c3nc4ccccc4o3)c2)sc1C(=O)O)C(=O)[C@H]1CC[C@H](C)CC1` [Example 31, 5-[5-(1,3-Benzoxazol-2-yl)-3-furanyl]-3-[[(trans-4-methylcyclohexyl)carbonyl](1-methylethyl)amino]-2-thiophenecarboxylic acid], the IC50 [1] was 100 to 500 nM and the IC50 [2] was 100 to 500 nM.
For `CC(C)N(c1cc(-c2ccc(-c3cn4ccsc4n3)nc2)sc1C(=O)O)C(=O)[C@H]1CC[C@H](C)CC1` [Example 32, 5-(6-Imidazo[2,1-b][1,3]thiazol-6-yl-3-pyridinyl)-3-[[(trans-4-methylcyclohexyl)carbonyl](1-methylethyl)amino]-2-thiophenecarboxylic acid], the IC50 [1] was 50 to 100 nM and the IC50 [2] was 100 to 500 nM.
In the case of `CC(C)N(c1cc(-c2ccc(-c3cc4nccc(N)n4n3)c(Cl)c2)sc1C(=O)O)C(=O)[C@H]1CC[C@H](C)CC1` [Example 33, 5-[4-(7-Aminopyrazolo[1,5-a]pyrimidin-2-yl)-3-chlorophenyl]-3-[[(trans-4-methylcyclohexyl)carbonyl](1-methylethyl)amino]-2-thiophenecarboxylic acid], the IC50 [1] is reported as less than 5 nM and the IC50 [2] is reported as less than 5 nM.
